From patent publication US6562803B2, “Hair-growing agent” (Kyowa Hakko Kogyo Co., Ltd., priority 2001, dated 2003) come the findings set out here.

This assay deals with mouse hair follicle epithelial cells. Nature of the assay: Cell growth-promoting effect on cultured mouse hair follicle epithelial cells (MTT). The class given is cell-based. The settings on record: cultured 5 days, absorbance at 570 nm, control DMSO alone = 100.

Experimental: The skin on the back of a 4-days-old C3H mouse (Charles River Japan, Inc.) was cut off and treated with MEM (Eagle's Minimum Essential Medium) containing 500 units/ml Dispase (Godo Shusei Co., Ltd.) and 5% fetal calf serum (FCS) at 4° C. for 16 hours.
The dermis suspension was filtered through a 212-μm nylon mesh (Nippon Rikagaku Kikai Co., Ltd.) and the filtrate was centrifuged at 1000 rpm for 5 minutes to obtain pellets containing hair follicle tissue. To the pellets was added calcium/magnesium-free PBS (Dulbecco's Phosphate-Buffered Saline) and the pellets were suspended therein using a pipette. The resulting suspension was allowed to stand for 15 minutes to precipitate hair follicle tissue. The same procedure as above (addition of calcium/magnesium-free PBS, suspending by use of a pipette, and precipitation by allowing the suspension to stand for 15 minutes) was repeated three times using the obtained hair follicle tissue.
To the resulting mixture was added DMEM containing 10% FCS to prepare a hair follicle tissue cell suspension having a density of 3×10^5 cells/ml. The hair follicle tissue cell suspension was put into wells of a 24-well collagen-coated plate (Iwaki Glass Co., Ltd.) in an amount of 1 ml/well, followed by culturing in 5% CO2 at 37° C. for 24 hours.
During the culturing, the medium was replaced with a fresh one every other day.
The degree of cell growth was measured according to the method using MTT [3-(4,5-dimethylthiazol-2-yl)-2,5-diphenyl tetrazolium bromide]
To each well of the 24-well microplate (2 cm^2/well) was added a PBS solution of MTT (5 mg/ml) in an amount of 1/10 by volume based on 1 ml of the culture. The plate was shaken to make the mixture homogeneous, followed by culturing in 5% CO2 at 37° C. for 4 hours. Four hours later, the culture was sucked and 1 ml of a 0.04 mol/l solution of HCl in isopropyl alcohol was added to each well to completely dissolve formazan formed in the wells.
The degree of cell growth was determined by measuring the absorbance at 570 nm based on that at 650 nm as a control.

Consider `Oc1cc(O)c2c(c1)O[C@H](c1ccc(O)c(O)c1)[C@H](O)[C@H]2c1c(O)cc(O)c2c1O[C@H](c1ccc(O)c(O)c1)[C@H](O)C2` [Procyanidin B-2, epicatechin-(4β→8)-epicatechin], for which the “Relative cell growth rate based on the control as 100” value (from here on “Relative cell growth rate based”) (30 μmol/l) was 295.
In the case of `CCCCCCCC/C=C\CCCCCCCC(=O)OCC(COP(=O)(O)O)OC(C)=O` (stereo not drawn) [1-O-oleoyl-2-O-acetylglyceryl-3-phosphoric Acid], the “Relative cell growth rate based” value (1 μmol/l) is on record as 327.
As to `Cc1c(C)c2c(c(C)c1O)CCC(C)(CCCC(C)CCCC(C)CCCC(C)C)O2` (racemic) [dl-α-Tocopherol, dl-α-tocopherol], for the setting “30 μmol/l”, the “Relative cell growth rate based” value was 178.
